Laboratory results published in PMC3025903 (Molecular Pain, 2010).

Legend:
[1] = target: T1, human N-type Ca^2+ channels stably expressed in HEK293 cells (C2D7 cells) (Homo sapiens, UniProt Q00975); test: cell-based
T1 construct: expressed in transfected cells

[2] = tested on: Sprague-Dawley rats; conditions: rat, in vivo, iv; SEM
[3] = tested on: Sprague-Dawley rats; conditions: rat, in vivo, iv

T1 sequence (Q00975 whole entry, looked up): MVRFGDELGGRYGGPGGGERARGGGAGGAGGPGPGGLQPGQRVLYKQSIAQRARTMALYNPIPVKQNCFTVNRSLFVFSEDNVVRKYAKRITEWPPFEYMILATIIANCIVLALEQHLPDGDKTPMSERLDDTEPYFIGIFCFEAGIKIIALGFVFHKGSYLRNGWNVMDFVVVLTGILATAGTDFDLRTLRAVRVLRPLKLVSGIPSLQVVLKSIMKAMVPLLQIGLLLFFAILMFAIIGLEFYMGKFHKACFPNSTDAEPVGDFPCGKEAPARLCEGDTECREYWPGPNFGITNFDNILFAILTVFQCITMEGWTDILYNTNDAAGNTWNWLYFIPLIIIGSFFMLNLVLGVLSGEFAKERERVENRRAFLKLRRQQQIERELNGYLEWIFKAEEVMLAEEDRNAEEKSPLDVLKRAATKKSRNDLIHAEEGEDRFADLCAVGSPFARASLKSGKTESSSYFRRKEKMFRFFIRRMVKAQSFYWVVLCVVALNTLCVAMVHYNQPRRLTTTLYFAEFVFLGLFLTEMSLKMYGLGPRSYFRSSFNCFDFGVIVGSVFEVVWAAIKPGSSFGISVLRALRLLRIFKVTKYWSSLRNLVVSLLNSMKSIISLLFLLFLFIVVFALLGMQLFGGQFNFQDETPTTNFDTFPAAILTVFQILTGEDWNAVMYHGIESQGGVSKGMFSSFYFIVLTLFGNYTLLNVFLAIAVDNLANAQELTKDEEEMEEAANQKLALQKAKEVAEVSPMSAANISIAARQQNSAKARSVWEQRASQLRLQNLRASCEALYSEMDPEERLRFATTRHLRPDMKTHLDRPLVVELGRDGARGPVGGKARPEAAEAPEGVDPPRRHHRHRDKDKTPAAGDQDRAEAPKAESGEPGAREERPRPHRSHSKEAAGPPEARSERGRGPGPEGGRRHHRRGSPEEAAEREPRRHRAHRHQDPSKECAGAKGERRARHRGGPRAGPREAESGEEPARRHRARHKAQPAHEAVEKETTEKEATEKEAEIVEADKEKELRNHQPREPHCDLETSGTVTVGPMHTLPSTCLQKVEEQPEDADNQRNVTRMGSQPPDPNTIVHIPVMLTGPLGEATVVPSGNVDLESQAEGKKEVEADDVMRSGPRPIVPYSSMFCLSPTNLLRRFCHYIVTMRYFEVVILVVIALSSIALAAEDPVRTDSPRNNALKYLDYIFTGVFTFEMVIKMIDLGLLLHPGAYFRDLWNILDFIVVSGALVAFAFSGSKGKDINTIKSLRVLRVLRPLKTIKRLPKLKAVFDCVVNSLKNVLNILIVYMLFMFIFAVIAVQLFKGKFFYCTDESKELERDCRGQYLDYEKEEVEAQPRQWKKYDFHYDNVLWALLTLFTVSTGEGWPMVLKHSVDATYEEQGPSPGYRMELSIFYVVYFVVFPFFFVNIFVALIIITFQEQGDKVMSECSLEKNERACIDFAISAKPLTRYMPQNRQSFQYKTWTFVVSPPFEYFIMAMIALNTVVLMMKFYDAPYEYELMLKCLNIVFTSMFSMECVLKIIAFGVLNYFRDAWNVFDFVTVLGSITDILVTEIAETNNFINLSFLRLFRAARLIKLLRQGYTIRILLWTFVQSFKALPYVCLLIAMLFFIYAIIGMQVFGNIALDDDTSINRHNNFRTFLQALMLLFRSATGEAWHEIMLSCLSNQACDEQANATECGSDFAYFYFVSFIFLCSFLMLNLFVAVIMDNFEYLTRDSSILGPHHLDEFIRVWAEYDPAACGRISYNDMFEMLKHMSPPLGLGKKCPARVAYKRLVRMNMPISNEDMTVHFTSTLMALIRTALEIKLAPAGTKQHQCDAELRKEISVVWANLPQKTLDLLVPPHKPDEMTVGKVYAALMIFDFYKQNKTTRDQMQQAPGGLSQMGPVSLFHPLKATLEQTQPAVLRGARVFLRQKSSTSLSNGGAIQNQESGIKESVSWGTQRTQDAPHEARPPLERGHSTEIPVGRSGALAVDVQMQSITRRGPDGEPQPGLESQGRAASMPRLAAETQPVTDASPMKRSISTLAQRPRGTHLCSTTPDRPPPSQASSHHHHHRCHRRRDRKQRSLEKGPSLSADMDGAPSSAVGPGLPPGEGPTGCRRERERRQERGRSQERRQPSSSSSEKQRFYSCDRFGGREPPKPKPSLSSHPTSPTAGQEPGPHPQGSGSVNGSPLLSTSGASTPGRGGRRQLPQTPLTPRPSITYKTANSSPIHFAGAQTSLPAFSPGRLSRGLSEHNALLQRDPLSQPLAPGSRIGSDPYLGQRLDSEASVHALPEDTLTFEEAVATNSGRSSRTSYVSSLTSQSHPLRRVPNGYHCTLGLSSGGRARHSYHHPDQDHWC

Row | Structure (SMILES) | IC50 [1] [nM] | block of N-type Ca2+ currents [1] [%] | steady-state level to which the currents recovered after washout [1] [%] | mean arterial pressure after 60 min [2] [mmHg] | mean arterial pressure within 3 min after injection [2] [mmHg] | mean blood pressure 5 min after administration [3] [mmHg] | mean blood pressure after 5 h [3]
1 | CC[C@H](C)[C@@H]1NC(=O)[C@H](CCCNC(=N)N)NC(=O)[C@H](CO)NC(=O)[C@@H]2CSSC[C@@H]3NC(=O)[C@H](CO)NC(=O)CNC(=O)[C@H]([C@@H](C)O)NC(=O)[C@H](CSSC[C@H](N)C(=O)N[C@@H](CCCCN)C(=O)NCC(=O)N[C@@H]([C@@H](C)O)C(=O)NCC(=O)N[C@@H](CCCCN)C(=O)N[C@@H](CO)C(=O)N2)NC(=O)[C@H](CSSC[C@@H](C(N)=O)NC(=O)[C@H](CCCCN)NC(=O)CNC(=O)[C@H](CO)NC(=O)[C@H](CCCNC(=N)N)NC3=O)NC(=O)[C@H](CC(N)=O)NC(=O)[C@H](Cc2ccc(O)cc2)NC(=O)[C@H](C)NC1=O [CTx-FVIA, ω-conotoxin FVIA] | 11.5 ± 1.4 | 91.25 ± 1.8 | 78.4 ± 5.8 | 79.7 ± 4.1 | 56.4 ± 1.0 | 78.9 ± 3.1 | nearly recovered
2 | CSCC[C@@H]1NC(=O)[C@H](CC(C)C)NC(=O)[C@H](CCCNC(=N)N)NC(=O)[C@H](CO)NC(=O)[C@@H]2CSSC[C@@H]3NC(=O)[C@H](CO)NC(=O)CNC(=O)[C@H]([C@@H](C)O)NC(=O)[C@H](CSSC[C@H](N)C(=O)N[C@@H](CCCCN)C(=O)NCC(=O)N[C@@H](CCCCN)C(=O)NCC(=O)N[C@@H](C)C(=O)N[C@@H](CCCCN)C(=O)N2)NC(=O)[C@H](CSSC[C@@H](C(N)=O)NC(=O)[C@H](CCCCN)NC(=O)CNC(=O)[C@H](CO)NC(=O)[C@H](CCCNC(=N)N)NC3=O)NC(=O)[C@H](CC(=O)O)NC(=O)[C@H](Cc2ccc(O)cc2)NC1=O [CTx-MVIIA, ω-Conotoxin (CTx)-MVIIA, reference compound] | – | 87.5 ± 1.9 | 19.8 ± 3.8 | 65.3 ± 1.9 | 57.3 ± 3.1 | 77.5 ± 1.7 | 87.4 ± 2.6 mmHg
